Laboratory results as given in patent US12065436B2, “Cardiac sarcomere inhibitors” (Cytokinetics, Inc., priority 2018, dated 2024).

Biological target: bovine cardiac myofibrils (full-length cardiac myosin ATPase in the native sarcomere) (Bos taurus (Bovine), UniProt Q9BE39)
Experiment: Skinned bovine cardiac myofibril ATPase assay (PK/LDH-coupled)
Format: biochemical
Details: Ca2+ activating to 75% of maximal rate; for CDMF75 IC15: concentration giving 15% inhibition; for IC50: read-out: CDMF75 IC50
Method in brief: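 Inhibition of steady-state ATPase read at 340 nm through a PK/LDH-coupled NADH system (0.5 mM NADH, 1.5 mM PEP). Detergent-skinned bovine cardiac myofibrils, 1 mg/mL, were tested at pH 6.8 in PIPES/MgCl2 with 50 μM ATP and calcium adjusted to give pCa50 or pCa75 activation.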

bovine cardiac myofibrils (full-length cardiac myosin ATPase in the native sarcomere), sequence (Q9BE39 whole entry): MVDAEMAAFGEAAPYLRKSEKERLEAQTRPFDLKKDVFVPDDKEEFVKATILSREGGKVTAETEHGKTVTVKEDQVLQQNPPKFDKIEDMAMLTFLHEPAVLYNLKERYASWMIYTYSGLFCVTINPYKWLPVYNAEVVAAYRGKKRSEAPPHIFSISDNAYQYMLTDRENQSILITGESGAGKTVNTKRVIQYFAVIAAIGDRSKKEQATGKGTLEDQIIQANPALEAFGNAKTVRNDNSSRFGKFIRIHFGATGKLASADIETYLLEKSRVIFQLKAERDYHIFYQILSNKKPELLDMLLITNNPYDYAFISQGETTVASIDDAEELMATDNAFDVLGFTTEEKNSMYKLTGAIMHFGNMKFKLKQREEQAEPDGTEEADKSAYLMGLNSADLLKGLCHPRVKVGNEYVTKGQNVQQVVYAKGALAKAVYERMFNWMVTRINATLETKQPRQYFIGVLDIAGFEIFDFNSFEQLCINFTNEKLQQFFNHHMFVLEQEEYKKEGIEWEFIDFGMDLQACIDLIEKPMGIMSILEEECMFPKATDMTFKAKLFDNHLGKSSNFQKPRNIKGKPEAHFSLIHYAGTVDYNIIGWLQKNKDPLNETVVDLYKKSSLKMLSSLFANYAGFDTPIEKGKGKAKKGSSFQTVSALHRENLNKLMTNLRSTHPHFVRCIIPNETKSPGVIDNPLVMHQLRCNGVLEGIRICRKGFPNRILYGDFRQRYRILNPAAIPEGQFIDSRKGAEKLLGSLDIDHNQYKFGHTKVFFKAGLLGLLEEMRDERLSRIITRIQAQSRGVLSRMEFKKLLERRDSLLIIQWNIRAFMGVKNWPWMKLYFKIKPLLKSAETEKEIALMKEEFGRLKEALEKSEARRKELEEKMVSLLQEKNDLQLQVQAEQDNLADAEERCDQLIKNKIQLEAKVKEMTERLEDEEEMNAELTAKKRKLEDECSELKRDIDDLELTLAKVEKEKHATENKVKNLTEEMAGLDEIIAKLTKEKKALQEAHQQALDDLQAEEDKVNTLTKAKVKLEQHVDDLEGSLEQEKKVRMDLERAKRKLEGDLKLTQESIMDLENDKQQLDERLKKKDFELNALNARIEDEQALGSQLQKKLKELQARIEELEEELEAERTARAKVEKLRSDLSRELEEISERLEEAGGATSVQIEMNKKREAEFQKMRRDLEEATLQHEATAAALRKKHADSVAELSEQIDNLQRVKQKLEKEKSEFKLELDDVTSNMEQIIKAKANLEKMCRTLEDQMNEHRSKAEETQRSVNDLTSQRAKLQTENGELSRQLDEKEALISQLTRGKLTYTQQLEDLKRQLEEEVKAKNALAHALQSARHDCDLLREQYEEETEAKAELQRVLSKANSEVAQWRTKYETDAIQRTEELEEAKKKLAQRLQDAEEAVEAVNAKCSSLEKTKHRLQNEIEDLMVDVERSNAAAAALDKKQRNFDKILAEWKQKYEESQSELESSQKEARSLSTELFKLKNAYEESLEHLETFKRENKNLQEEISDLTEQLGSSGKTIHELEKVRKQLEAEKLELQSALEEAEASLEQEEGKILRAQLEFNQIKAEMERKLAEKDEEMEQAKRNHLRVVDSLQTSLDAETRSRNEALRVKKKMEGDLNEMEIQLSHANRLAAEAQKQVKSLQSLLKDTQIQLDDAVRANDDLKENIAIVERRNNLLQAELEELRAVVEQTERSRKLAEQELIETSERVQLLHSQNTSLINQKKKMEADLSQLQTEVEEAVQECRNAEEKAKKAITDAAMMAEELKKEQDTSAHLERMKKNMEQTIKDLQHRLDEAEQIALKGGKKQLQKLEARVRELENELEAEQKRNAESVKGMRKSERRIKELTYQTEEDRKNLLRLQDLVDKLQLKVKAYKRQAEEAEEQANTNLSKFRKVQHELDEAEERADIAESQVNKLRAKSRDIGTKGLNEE
bovine cardiac myofibrils (full-length cardiac myosin ATPase in the native sarcomere), sequence (P85100 whole entry partner): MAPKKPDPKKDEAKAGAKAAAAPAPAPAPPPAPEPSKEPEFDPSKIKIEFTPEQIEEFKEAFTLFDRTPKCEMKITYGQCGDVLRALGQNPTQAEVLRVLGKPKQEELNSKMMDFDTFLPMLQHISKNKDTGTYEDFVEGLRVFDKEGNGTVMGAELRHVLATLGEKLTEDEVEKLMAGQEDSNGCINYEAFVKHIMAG
bovine cardiac myofibrils (full-length cardiac myosin ATPase in the native sarcomere), sequence (Q3SZE5 whole entry partner): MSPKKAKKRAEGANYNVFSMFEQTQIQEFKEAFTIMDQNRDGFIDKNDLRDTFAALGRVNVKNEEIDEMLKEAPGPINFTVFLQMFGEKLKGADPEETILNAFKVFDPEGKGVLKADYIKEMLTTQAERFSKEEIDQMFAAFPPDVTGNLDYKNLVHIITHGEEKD

Row | SMILES | CDMF75 IC15 [nM] | IC50 [nM]
1 | Cn1nnc(C(=O)N[C@@H]2COc3cc(-c4noc(C5CC5)n4)ccc32)n1 [Compound 235, (S)-N-(6-(5-cyclopropyl-1,2,4-oxadiazol-3-yl)-2,3-dihydrobenzofuran-3-yl)-2-methyl-2H-tetrazole-5-carboxamide] | 1200 | 4800
2 | Cn1cc(C(=O)NC2COc3cc(-c4noc(C5CC5)n4)ccc32)cn1 (stereo not drawn) [Compound 237, N-(6-(5-cyclopropyl-1,2,4-oxadiazol-3-yl)-2,3-dihydrobenzofuran-3-yl)-1-methyl-1H-pyrazole-4-carboxamide] | 1100 | 3600
3 | CCc1nc(-c2ccc3c(c2)OCC3NC(=O)c2cnn(C)c2)no1 (stereo not drawn) [Compound 239, N-(6-(5-ethyl-1,2,4-oxadiazol-3-yl)-2,3-dihydrobenzofuran-3-yl)-1-methyl-1H-pyrazole-4-carboxamide] | 700 | 2100
4 | Cn1nccc1C(=O)N[C@@H]1CCc2cc(-c3noc(C4CC4)n3)ccc21 [Compound 241, (R)-N-(5-(5-cyclopropyl-1,2,4-oxadiazol-3-yl)-2,3-dihydro-1H-inden-1-yl)-1-methyl-1H-pyrazole-5-carboxamide] | 200 | 800
5 | [2H]C([2H])([2H])c1nc(-c2ccc3c(c2)CC[C@H]3NC(=O)c2ccnn2C)no1 [Compound 242, (R)-1-methyl-N-(5-(5-(methyl-d3)-1,2,4-oxadiazol-3-yl)-2,3-dihydro-1H-inden-1-yl)-1H-pyrazole-5-carboxamide] | 500 | 1500
6 | [2H]C([2H])([2H])c1nc(-c2ccc3c(c2)CC[C@H]3NC(=O)c2nnn(C)n2)no1 [Compound 243, (R)-2-methyl-N-(5-(5-(methyl-d3)-1,2,4-oxadiazol-3-yl)-2,3-dihydro-1H-inden-1-yl)-2H-tetrazole-5-carboxamide] | 1300 | 4700
7 | [2H]C([2H])([2H])c1nc(-c2ccc3c(c2)CC[C@H]3NC(=O)c2cnn(C)c2)no1 [Compound 244, (R)-1-methyl-N-(5-(5-(methyl-d3)-1,2,4-oxadiazol-3-yl)-2,3-dihydro-1H-inden-1-yl)-1H-pyrazole-4-carboxamide] | 1600 | 5400
8 | [2H]C([2H])([2H])c1nc(-c2ccc3c(c2)CC[C@H]3NC(=O)c2ccnc(C)c2)no1 [Compound 245, (R)-2-methyl-N-(5-(5-(methyl-d3)-1,2,4-oxadiazol-3-yl)-2,3-dihydro-1H-inden-1-yl)isonicotinamide] | 1000 | 3400
9 | [2H]C([2H])([2H])c1nc(-c2ccc3c(c2)CC[C@H]3NC(=O)c2cn(C)nc2C)no1 [Compound 246, (R)-1,3-dimethyl-N-(5-(5-(methyl-d3)-1,2,4-oxadiazol-3-yl)-2,3-dihydro-1H-inden-1-yl)-1H-pyrazole-4-carboxamide] | 1100 | 3500
10 | [2H]C([2H])([2H])c1nc(-c2ccc3c(c2)CC[C@H]3NC(=O)c2cc(C)nn2C)no1 [Compound 247, (R)-1,3-dimethyl-N-(5-(5-(methyl-d3)-1,2,4-oxadiazol-3-yl)-2,3-dihydro-1H-inden-1-yl)-1H-pyrazole-5-carboxamide] | 800 | 2600
11 | [2H]C([2H])([2H])c1nc(-c2ccc3c(c2)CC[C@H]3NC(=O)c2oncc2C)no1 [Compound 248, (R)-4-methyl-N-(5-(5-(methyl-d3)-1,2,4-oxadiazol-3-yl)-2,3-dihydro-1H-inden-1-yl)isoxazole-5-carboxamide] | 400 | 1500
12 | [2H]C([2H])([2H])c1nc(-c2ccc3c(c2)CC[C@H]3NC(=O)c2cnc(C)o2)no1 [Compound 249, (R)-2-methyl-N-(5-(5-(methyl-d3)-1,2,4-oxadiazol-3-yl)-2,3-dihydro-1H-inden-1-yl)oxazole-5-carboxamide] | 1400 | 5200
13 | [2H]C([2H])([2H])c1nc(-c2ccc3c(c2)CC[C@H]3NC(=O)c2ocnc2C)no1 [Compound 251, (R)-4-methyl-N-(5-(5-(methyl-d3)-1,2,4-oxadiazol-3-yl)-2,3-dihydro-1H-inden-1-yl)oxazole-5-carboxamide] | 500 | 1500
14 | Cc1cc(-c2ccc3c(c2)CC[C@H]3NC(=O)c2nnn(C)n2)no1 [Compound 252, (R)-2-methyl-N-(5-(5-methylisoxazol-3-yl)-2,3-dihydro-1H-inden-1-yl)-2H-tetrazole-5-carboxamide] | 400 | 1500
15 | Cn1nnc(C(=O)N[C@@H]2CCc3cc(-c4nc(C5CC5)no4)ccc32)n1 [Compound 260, (R)-N-(5-(3-cyclopropyl-1,2,4-oxadiazol-5-yl)-2,3-dihydro-1H-inden-1-yl)-2-methyl-2H-tetrazole-5-carboxamide] | 400 | 1400
16 | [2H]C([2H])([2H])c1nc(-c2ccc3c(c2)OC[C@H]3NC(=O)c2ccnn2C)no1 [Compound 262, (S)-1-methyl-N-(6-(5-(methyl-d3)-1,2,4-oxadiazol-3-yl)-2,3-dihydrobenzofuran-3-yl)-1H-pyrazole-5-carboxamide] | 700 | 1900
17 | [2H]C([2H])([2H])c1nc(-c2ccc3c(c2)OC[C@H]3NC(=O)c2cnn(C)c2)no1 [Compound 265, (S)-1-methyl-N-(6-(5-(methyl-d3)-1,2,4-oxadiazol-3-yl)-2,3-dihydrobenzofuran-3-yl)-1H-pyrazole-4-carboxamide] | 1000 | 3400
18 | [2H]C([2H])([2H])c1nc(-c2ccc3c(c2)OC[C@H]3NC(=O)c2cc(C)nn2C)no1 [Compound 266, (S)-1,3-dimethyl-N-(6-(5-(methyl-d3)-1,2,4-oxadiazol-3-yl)-2,3-dihydrobenzofuran-3-yl)-1H-pyrazole-5-carboxamide] | 900 | 2700
19 | [2H]C([2H])([2H])c1nc(-c2ccc3c(c2)OC[C@H]3NC(=O)c2cnc(C)o2)no1 [Compound 267, (S)-2-methyl-N-(6-(5-(methyl-d3)-1,2,4-oxadiazol-3-yl)-2,3-dihydrobenzofuran-3-yl)oxazole-5-carboxamide] | 1200 | 4400

Further lines, results first:

Row | CDMF75 IC15 [nM] | IC50 [nM] | SMILES
20 | 300 | 800 | CCc1nc(-c2ccc3c(c2)CC[C@H]3NC(=O)c2ccnn2C)no1 [Compound 240, (R)-N-(5-(5-ethyl-1,2,4-oxadiazol-3-yl)-2,3-dihydro-1H-inden-1-yl)-1-methyl-1H-pyrazole-5-carboxamide]
21 | 1000 | 3600 | [2H]C([2H])([2H])c1nc(-c2ccc3c(c2)CC[C@H]3NC(=O)c2cnn(C)c2C)no1 [Compound 250, (R)-1,5-dimethyl-N-(5-(5-(methyl-d3)-1,2,4-oxadiazol-3-yl)-2,3-dihydro-1H-inden-1-yl)-1H-pyrazole-4-carboxamide]
22 | 1300 | 4900 | CCc1noc(-c2ccc3c(c2)CC[C@H]3NC(=O)c2cnn(C)c2)n1 [Compound 254, (R)-N-(5-(3-ethyl-1,2,4-oxadiazol-5-yl)-2,3-dihydro-1H-inden-1-yl)-1-methyl-1H-pyrazole-4-carboxamide]
23 | 800 | 2600 | CCc1noc(-c2ccc3c(c2)CC[C@H]3NC(=O)c2cnn(C)c2C)n1 [Compound 255, (R)-N-(5-(3-ethyl-1,2,4-oxadiazol-5-yl)-2,3-dihydro-1H-inden-1-yl)-1,5-dimethyl-1H-pyrazole-4-carboxamide]
24 | 500 | 1700 | CCc1noc(-c2ccc3c(c2)CC[C@H]3NC(=O)c2nnn(C)n2)n1 [Compound 256, (R)-N-(5-(3-ethyl-1,2,4-oxadiazol-5-yl)-2,3-dihydro-1H-inden-1-yl)-2-methyl-2H-tetrazole-5-carboxamide]
25 | 400 | 1000 | CCc1noc(-c2ccc3c(c2)CC[C@H]3NC(=O)c2ccnn2C)n1 [Compound 257, (R)-N-(5-(3-ethyl-1,2,4-oxadiazol-5-yl)-2,3-dihydro-1H-inden-1-yl)-1-methyl-1H-pyrazole-5-carboxamide]
26 | 1500 | 5700 | Cn1cc(C(=O)N[C@@H]2CCc3cc(-c4nc(C5CC5)no4)ccc32)cn1 [Compound 258, (R)-N-(5-(3-cyclopropyl-1,2,4-oxadiazol-5-yl)-2,3-dihydro-1H-inden-1-yl)-1-methyl-1H-pyrazole-4-carboxamide]
27 | 800 | 3000 | Cc1c(C(=O)N[C@@H]2CCc3cc(-c4nc(C5CC5)no4)ccc32)cnn1C [Compound 259, (R)-N-(5-(3-cyclopropyl-1,2,4-oxadiazol-5-yl)-2,3-dihydro-1H-inden-1-yl)-1,5-dimethyl-1H-pyrazole-4-carboxamide]
28 | 400 | 1200 | Cn1nccc1C(=O)N[C@@H]1CCc2cc(-c3nc(C4CC4)no3)ccc21 [Compound 261, (R)—N-(5-(3-cyclopropyl-1,2,4-oxadiazol-5-yl)-2,3-dihydro-1H-inden-1-yl)-1-methyl-1H-pyrazole-5-carboxamide]
29 | 2800 | 10500 | Cc1noc(-c2ccc3c(c2)CC[C@H]3NC(=O)c2cnn(C)c2)n1 [Compound 263, (R)-1-methyl-N-(5-(3-methyl-1,2,4-oxadiazol-5-yl)-2,3-dihydro-1H-inden-1-yl)-1H-pyrazole-4-carboxamide]
30 | 1800 | 6600 | Cc1noc(-c2ccc3c(c2)CC[C@H]3NC(=O)c2cnn(C)c2C)n1 [Compound 264, (R)-1,5-dimethyl-N-(5-(3-methyl-1,2,4-oxadiazol-5-yl)-2,3-dihydro-1H-inden-1-yl)-1H-pyrazole-4-carboxamide]
